Experimental data as given in publication PMC12432127, “Assessing the potential of bacterial signal peptides for radiopharmaceutical applications” (Scientific Reports, 2025).
“And” between values parts separate entries of the source, which are not always exact repeats. Identical values can stand only once. Residues, ends and D or L forms follow the SMILES beside them. *: point of attachment. For = O=C*

Experiments:
human FPR2 = target: T1, human FPR2 (Homo sapiens, UniProt P25090); experiment: High-throughput calcium imaging (FLIPR), FPR2 transfected HEK293T cells; type: cell-based; conditions: read-out: EC50 Ca2+ mobilization
T1 construct: expressed in transfected cells; host or cells: HEK293T (transient, jetPEI)
T1 sequence (P25090 1-351): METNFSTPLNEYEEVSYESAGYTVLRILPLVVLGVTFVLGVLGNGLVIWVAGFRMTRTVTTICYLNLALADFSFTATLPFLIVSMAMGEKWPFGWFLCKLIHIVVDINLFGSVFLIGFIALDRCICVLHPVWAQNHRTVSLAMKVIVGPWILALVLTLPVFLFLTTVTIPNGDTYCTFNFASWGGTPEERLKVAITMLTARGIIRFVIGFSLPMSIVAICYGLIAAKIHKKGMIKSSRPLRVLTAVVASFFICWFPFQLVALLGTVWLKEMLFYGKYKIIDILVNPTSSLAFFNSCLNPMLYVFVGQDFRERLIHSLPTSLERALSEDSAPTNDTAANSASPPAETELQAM
Protocol: (§1) Cell transfection was performed approximately 24 h after seeding the cells, when they reached about 70% confluence. Transfection was carried out using jetPEI™ (Polyplus) according to the following protocol: 0.25 µg DNA was diluted in 10 µL NaCl (150 mM). 0.5 µL of jetPEI™ solution in 10 µL NaCl was mixed with the DNA solution and incubated at RT for 15–30 min. After incubation, 20 µL of the jetPEI™/DNA mixture was added dropwise to the cells, which were then placed in the cell culture incubator at 37 °C and 5% CO2. After 18 to 24 h of transfection, the medium was replaced, and 100 µL per well was added, then placed back in the incubator.
(§2) Automated high-throughput Ca^2+ measurements using a fluorescence imaging plate reader (FLIPR, Molecular Devices) were performed. […] After 2 h of loading with the fluorescent dye, the solution was removed, the plate was washed three times using an ELX50 washer (BioTek), and the intracellular release of calcium was measured using FLIPR. […]
(§3) The results are expressed as the means ± standard deviations of the number of the indicated determinations. […] Response amplitudes (F/F0) were calculated by dividing maximal fluorescence change after ligand application by baseline fluorescence. Maximal amplitudes were set to 100%, and curves were calculated with Graph Pad Prism Version 10.1 (GraphPad Software, Boston, MA, USA). […]

U87-MG cells = experiment: Calcium imaging (FLIPR) in U87-MG cells; type: cell-based, human; conditions: for Calicum signal (dF/F0): U87 cells
Protocol: (§4) Automated high-throughput Ca^2+ measurements using a fluorescence imaging plate reader (FLIPR, Molecular Devices) were performed. Briefly, […] were seeded in 96-well plates (~ 50,000 cells/well) one day before the experiments and incubated at 37 °C. HEK293T cells were co-transfected with the receptor or mock and the G protein Gα16 for 48 h. On the day of the experiments, the medium was removed, and the cells were loaded with a loading solution consisting of 2 µM Calbryte dye in C1 buffer (Calbryte 520AM, AAT Bioquest 20651) 50 µL per well, for at least 2 h at RT in the dark. After 2 h of loading with the fluorescent dye, the solution was removed, the plate was washed three times using an ELX50 washer (BioTek), and the intracellular release of calcium was measured using FLIPR. A Ca^2+ response was defined as an increase in the excitation ratio (340 nm/380 nm) that was at least four times higher than the mean baseline noise after bath application.
(§5) The results are expressed as the means ± standard deviations of the number of the indicated determinations. Calcium measurement experiments were routinely performed as triplicates and averaged over at least three independent transfections. Response amplitudes (F/F0) were calculated by dividing maximal fluorescence change after ligand application by baseline fluorescence. Maximal amplitudes were set to 100%, and curves were calculated with Graph Pad Prism Version 10.1 (GraphPad Software, Boston, MA, USA). S.D. values were calculated as averages from independently obtained EC50 values using the STDEV. Data derived from experiments were analyzed by two-way ANOVA. P < 0.05 was accepted as significant.

FPR1 = target: T2, FPR1 (Homo sapiens, UniProt P21462); experiment: High-throughput calcium imaging (FLIPR), FPR1 transfected HEK293T cells; type: cell-based; conditions: for Calicum signal (dF/F0): FPR1-HEK
T2 construct: expressed in transfected cells; host or cells: HEK293T (transient, jetPEI)
T2 sequence (P21462 1-350): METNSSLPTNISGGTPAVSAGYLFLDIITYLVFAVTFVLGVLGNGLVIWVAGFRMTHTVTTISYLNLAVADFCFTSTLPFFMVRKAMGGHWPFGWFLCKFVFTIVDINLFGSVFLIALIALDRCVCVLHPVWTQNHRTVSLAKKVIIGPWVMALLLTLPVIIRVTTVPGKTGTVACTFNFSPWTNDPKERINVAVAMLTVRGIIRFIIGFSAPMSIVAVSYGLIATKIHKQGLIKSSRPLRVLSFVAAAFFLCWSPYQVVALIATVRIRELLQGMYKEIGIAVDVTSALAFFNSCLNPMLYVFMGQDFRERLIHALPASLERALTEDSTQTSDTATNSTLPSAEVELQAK
Protocol: as §1, §4, §5

human FPR3 = target: T3, human FPR3 (Homo sapiens, UniProt P25089); experiment: High-throughput calcium imaging (FLIPR), FPR3 transfected HEK293T cells; type: cell-based; conditions: up to 10 µM
T3 construct: expressed in transfected cells; host or cells: HEK293T (transient, jetPEI)
T3 sequence (P25089 1-353): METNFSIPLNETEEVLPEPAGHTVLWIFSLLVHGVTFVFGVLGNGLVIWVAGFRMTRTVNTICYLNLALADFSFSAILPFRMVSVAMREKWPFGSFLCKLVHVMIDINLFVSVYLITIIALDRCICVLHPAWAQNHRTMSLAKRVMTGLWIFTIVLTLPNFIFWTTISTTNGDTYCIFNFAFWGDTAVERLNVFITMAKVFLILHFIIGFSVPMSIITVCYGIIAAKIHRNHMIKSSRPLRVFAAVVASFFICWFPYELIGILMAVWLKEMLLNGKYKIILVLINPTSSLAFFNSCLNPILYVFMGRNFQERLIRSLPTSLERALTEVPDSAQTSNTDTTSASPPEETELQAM
Protocol: as §1, §2, §3

[1] = Log Concentration (M) -6,5, single replicate values
[2] = Log Concentration (M) -6, single replicate values
[3] = Log Concentration (M) -7,5, single replicate values
[4] = Log Concentration (M) -7, single replicate values
[5] = Log Concentration (M) -8,5, single replicate values
[6] = Log Concentration (M) -8, single replicate values
[7] = Log Concentration (M) -9, single replicate values

CC[C@H](C)[C@H](NC(=O)[C@H](CCCCN)NC(=O)[C@@H](NC(=O)[C@@H]1CCCN1C(=O)[C@@H](NC(=O)[C@H](CCSC)NC=O)C(C)C)[C@@H](C)CC)C(=O)O [f-MVPIKI] (For-MVPIKI-OH; C-terminus assumed)
EC50 (human FPR2): 60 ± 0.76 nM
EC50 (U87-MG cells; U87-MG cells, read-out: EC50 Ca2+ flux): 5.3 ± 2.4 nM
Calicum signal (dF/F0) (U87-MG cells; [1]): 1,19 (2×) and 0,99 and 1,7 and 1,4
Calicum signal (dF/F0) (U87-MG cells; [2]): 1,22 and 1,13 and 1,2 and 1,14 and 1,1
Calicum signal (dF/F0) (U87-MG cells; [3]): 1 and 0,95 and 0,98 and 1,12 and 1,1
Calicum signal (dF/F0) (U87-MG cells; [4]): 1 and 1,1 and 1,2 and 1,18 and 0,99
Calicum signal (dF/F0) (U87-MG cells; [5]): 0,66 (2×) and 0,69 and 0,6 and 0,47
Calicum signal (dF/F0) (U87-MG cells; [6]): 0,9 and 0,98 and 0,94 and 1,3 and 1,07
Calicum signal (dF/F0) (U87-MG cells; Log Concentration (M) -9,5, single replicate values): 0,01 and 0,08 and 0,09 and 0,1 and 0,3
Calicum signal (dF/F0) (U87-MG cells; [7]): 0,14 and 0,23 and 0,2 and 0,12 and 0,38
Calicum signal (dF/F0) (FPR1; [1]): 0,85 (2×) and 0,92
Calicum signal (dF/F0) (FPR1; [2]): 0,75 and 0,94 and 0,85
Calicum signal (dF/F0) (FPR1; [3]): 0,71 and 0,77 and 0,68
Calicum signal (dF/F0) (FPR1; [4]): 0,57 and 0,86 and 0,73
Calicum signal (dF/F0) (FPR1; [5]): 0,27 and 0,32 and 0,34
Calicum signal (dF/F0) (FPR1; [6]): 0,65 and 0,63 and 0,6
Calicum signal (dF/F0) (FPR1; [7]): 0,18 and 0,24 and 0,22
EC50 (FPR1; FPR1 transfected HEK293T cells, peak calcium response, read-out: EC50 Ca2+ mobilization): 4.3 ± 2.4 nM
preference for FPR1 over FPR2 (calcium EC50) (FPR1; FPR1 vs FPR2): approximately 14 fold
activation of FPR3 (calcium) (human FPR3): did not activate FPR3 at any tested concentration
